Test results reported in publication PMC6100082, “Pyridine-Ureas as Potential Anticancer Agents: Synthesis and In Vitro Biological Evaluation” (Molecules : A Journal of Synthetic Chemistry and Natural …, 2018).
Where two headings read alike, the source gives them in different places.

How the values were obtained:
Format in all cases: cell-based, human
HL-60(TB) = experiment: NCI one-dose SRB assay (Leukemia); details: for Growth Percent: 1.00E-5 Molar; for inhibition at 10 µM: Homo sapiens, read-out: Percentage growth inhibition (GI%)
Procedure: (§1) The structures of all the newly prepared pyridine-ureas 8a–n were submitted to the National Cancer Institute (NCI) Developmental Therapeutic Program. Eight compounds 8b, 8d, 8e, 8i, 8j and 8l–n were selected to be examined for their in vitro growth inhibitory activity. The anticancer assays were carried out according to the protocol of the Drug Evaluation Branch, NCI, Bethesda. The selected pyridine-ureas were tested at one dose primary anticancer assay against a panel of approximately 58 cancer lines (concentration 10^−5 M). The tested human cancer cell lines emerged from nine different cancer subtypes: leukemia, colon, melanoma, ovarian, lung, CNS, renal, breast and prostate cancers. The sulforhodamine B (SRB) protein assay was adopted to estimate the cell viability and growth. The results were reported as mean-graph of the percentage growth of the treated cells, and presented as percentage growth inhibition (GI%) caused by the test compounds (Table 2).
(§2) The anticancer assays were performed in accordance with the protocol of the Drug Evaluation Branch, NCI, Bethesda. A 48 h drug exposure protocol was used and sulforhodamine B (SRB) protein assay was applied to estimate the cell viability and growth, as reported earlier.

SR = experiment: NCI one-dose SRB assay (Leukemia); details: for Growth Percent: 1.00E-5 Molar; for inhibition at 10 µM: Homo sapiens, read-out: Percentage growth inhibition (GI%)
Procedure: as §1, §2

K-562 = experiment: NCI one-dose SRB assay (Leukemia); details: for inhibition at 10 µM: Homo sapiens, K562, K-562, 10 μM, read-out: Percentage growth inhibition (GI%); for Growth Percent: K-562, 1.00E-5 Molar
Procedure: as §1, §2

RPMI-8226 = experiment: NCI one-dose SRB assay (Leukemia); details: for inhibition at 10 µM: Homo sapiens, RPMI-8226, 10 μM, read-out: Percentage growth inhibition (GI%); for Growth Percent: RPMI-8226, 1.00E-5 Molar
Procedure: as §1, §2

CCRF-CEM = experiment: NCI one-dose SRB assay (Leukemia); details: for Growth Percent: 1.00E-5 Molar; for inhibition at 10 µM: Homo sapiens, read-out: Percentage growth inhibition (GI%)
Procedure: as §1, §2

MOLT-4 = experiment: NCI one-dose SRB assay (Leukemia); details: for inhibition at 10 µM: Homo sapiens, MOLT-4, 10 μM, read-out: Percentage growth inhibition (GI%); for Growth Percent: MOLT-4, 1.00E-5 Molar
Procedure: as §1, §2

NCI-H322M = experiment: NCI one-dose SRB assay (Non-Small Cell Lung Cancer); details: for Growth Percent: 1.00E-5 Molar; for inhibition at 10 µM: Homo sapiens, read-out: Percentage growth inhibition (GI%)
Procedure: as §1, §2

NCI-H522 = experiment: as above; details: for inhibition at 10 µM: Homo sapiens, NCI-H522, 10 μM, read-out: Percentage growth inhibition (GI%); for Growth Percent: NCI-H522, 1.00E-5 Molar
Procedure: as §1, §2

NCI-H460 = experiment: as above; details: for inhibition at 10 µM: Homo sapiens, NCI-H460, 10 μM, read-out: Percentage growth inhibition (GI%); for Growth Percent: NCI-H460, 1.00E-5 Molar
Procedure: as §1, §2

HOP-62 = experiment: as above; details: for Growth Percent: HOP-62, 1.00E-5 Molar; for inhibition at 10 µM: Homo sapiens, HOP-62, 10 μM, read-out: Percentage growth inhibition (GI%)
Procedure: as §1, §2

NCI-H226 = experiment: as above; details: for inhibition at 10 µM: Homo sapiens, NCI-H226, 10 μM, read-out: Percentage growth inhibition (GI%); for Growth Percent: NCI-H226, 1.00E-5 Molar
Procedure: as §1, §2

EKVX = experiment: as above; details: for Growth Percent: 1.00E-5 Molar; for inhibition at 10 µM: Homo sapiens, read-out: Percentage growth inhibition (GI%)
Procedure: as §1, §2

HOP-92 = experiment: as above; details: for Growth Percent: HOP-92, 1.00E-5 Molar; for inhibition at 10 µM: Homo sapiens, HOP-92, 10 μM, read-out: Percentage growth inhibition (GI%)
Procedure: as §1, §2

NCI-H23 = experiment: as above; details: for inhibition at 10 µM: Homo sapiens, NCI-H23, 10 μM, read-out: Percentage growth inhibition (GI%); for Growth Percent: NCI-H23, 1.00E-5 Molar
Procedure: as §1, §2

A549/ATCC = experiment: as above; details: for Growth Percent: 1.00E-5 Molar; for inhibition at 10 µM: Homo sapiens, read-out: Percentage growth inhibition (GI%)
Procedure: as §1, §2

[1] = system: breast cancer MCF-7 cell line; experiment: In vitro anti-proliferative activity, MTT assay; details: Homo sapiens, MCF-7, MTT
Procedure: The in vitro anti-proliferative activity of the newly prepared pyridine-ureas 8a–n was examined against breast cancer MCF-7 cell line. The assay was carried out, as triplicates, utilizing the 3-(4,5-dimethylthiazol-2-yl)-2,5-diphenyltetrazolium bromide (MTT) colorimetric assay as described by T. Mosmann. Doxorubicin and Sorafenib were included in this assay as a reference drug.
MCF-7 (human breast cancer cell line) and WI-38 (human lung fibroblast cell line), were obtained from American Type Culture Collection (Manassas, VA, USA). The cells were propagated in DMEM and supplemented with 10% heat-inactivated FBS (Hyclone), 10 μg/mL of insulin (Manufacturer, Sigma, St. Louis, MO, USA), and 1% penicillin-streptomycin. MTT assay was utilized to examine the in vitro anti-proliferative activity of the newly prepared ureas following the reported procedures. […] The data presented are the mean of at least three separate experiments.

UACC-62 = experiment: NCI one-dose SRB assay (Melanoma); details: for inhibition at 10 µM: Homo sapiens, UACC-62, 10 μM, read-out: Percentage growth inhibition (GI%); for Growth Percent: UACC-62, 1.00E-5 Molar
Procedure: as §1, §2

SK-MEL-28 = experiment: NCI one-dose SRB assay (Melanoma); details: for inhibition at 10 µM: Homo sapiens, SK-MEL-28, 10 μM, read-out: Percentage growth inhibition (GI%); for Growth Percent: SK-MEL-28, 1.00E-5 Molar
Procedure: as §1, §2

MDA-MB-435 = experiment: NCI one-dose SRB assay (Melanoma); details: for inhibition at 10 µM: Homo sapiens, MDA-MB-435, 10 μM, read-out: Percentage growth inhibition (GI%); for Growth Percent: MDA-MB-435, 1.00E-5 Molar
Procedure: as §1, §2

SK-MEL-2 = experiment: NCI one-dose SRB assay (Melanoma); details: for inhibition at 10 µM: Homo sapiens, SK-MEL-2, 10 μM, read-out: Percentage growth inhibition (GI%); for Growth Percent: SK-MEL-2, 1.00E-5 Molar
Procedure: as §1, §2

LOX IMVI = experiment: NCI one-dose SRB assay (Melanoma); details: for Growth Percent: 1.00E-5 Molar; for inhibition at 10 µM: Homo sapiens, read-out: Percentage growth inhibition (GI%)
Procedure: as §1, §2

SK-MEL-5 = experiment: NCI one-dose SRB assay (Melanoma); details: for inhibition at 10 µM: Homo sapiens, SK-MEL-5, 10 μM, read-out: Percentage growth inhibition (GI%); for Growth Percent: SK-MEL-5, 1.00E-5 Molar
Procedure: as §1, §2

M14 = experiment: NCI one-dose SRB assay (Melanoma); details: for inhibition at 10 µM: Homo sapiens, M14, 10 μM, read-out: Percentage growth inhibition (GI%); for Growth Percent: M14, 1.00E-5 Molar
Procedure: as §1, §2

MALME-3M = experiment: NCI one-dose SRB assay (Melanoma); details: for Growth Percent: 1.00E-5 Molar; for inhibition at 10 µM: Homo sapiens, read-out: Percentage growth inhibition (GI%)
Procedure: as §1, §2

[2] = MCF7, 48 h, 48 h of incubation, read-out: IC50 48 h
[3] = MCF7, 72 h, 72 h of incubation, read-out: IC50 72 h

Structure (SMILES): COc1ccc(-c2ccc(NC(=O)Nc3cccc(C(F)(F)F)c3)c(C)n2)cc1OC [Compound 8i, 1-(6-(3,4-Dimethoxyphenyl)-2-methylpyridin-3-yl)-3-(3-(trifluoromethyl)phenyl) Urea]
- Growth Percent (HL-60(TB)): 61.08%
- inhibition at 10 µM (HL-60(TB)): 39%
- Growth Percent (SR): 51.13%
- inhibition at 10 µM (SR): 49%
- inhibition at 10 µM (K-562): 69%
- Growth Percent (K-562): 31.93%
- inhibition at 10 µM (RPMI-8226): 66%
- Growth Percent (RPMI-8226): 34.61%
- Growth Percent (CCRF-CEM): 50.94%
- inhibition at 10 µM (CCRF-CEM): 50%
- inhibition at 10 µM (MOLT-4): 61%
- Growth Percent (MOLT-4): 39.58%
- Growth Percent (NCI-H322M): 92.59%
- inhibition at 10 µM (NCI-H322M): < 10%
- inhibition at 10 µM (NCI-H522): 60%
- Growth Percent (NCI-H522): 40.25%
- inhibition at 10 µM (NCI-H460): 39%
- Growth Percent (NCI-H460): 61.77%
- Growth Percent (HOP-62): 92.32%
- inhibition at 10 µM (HOP-62): < 10%
- inhibition at 10 µM (NCI-H226): 28%
- Growth Percent (NCI-H226): 72.63%
- Growth Percent (EKVX): 66.90%
- inhibition at 10 µM (EKVX): 34%
- Growth Percent (HOP-92): 55.33%
- inhibition at 10 µM (HOP-92): 45%
- inhibition at 10 µM (NCI-H23): 29%
- Growth Percent (NCI-H23): 71.94%
- Growth Percent (A549/ATCC): 60.26%
- inhibition at 10 µM (A549/ATCC): 40%
- IC50 [1, 2]: 6.19 ± 0.54 µM
- IC50 [1, 3]: 5.8 ± 0.34 µM
- inhibition at 10 µM (UACC-62): 19%
- Growth Percent (UACC-62): 81.66%
- inhibition at 10 µM (SK-MEL-28): 25%
- Growth Percent (SK-MEL-28): 75.52%
- inhibition at 10 µM (MDA-MB-435): 27%
- Growth Percent (MDA-MB-435): 73.17%
- inhibition at 10 µM (SK-MEL-2): 27%
- Growth Percent (SK-MEL-2): 73.78%
- Growth Percent (LOX IMVI): 70.96%
- inhibition at 10 µM (LOX IMVI): 30%
- inhibition at 10 µM (SK-MEL-5): 42%
- Growth Percent (SK-MEL-5): 58.49%
- inhibition at 10 µM (M14): 69%
- Growth Percent (M14): 31.21%
- Growth Percent (MALME-3M): 95.26%
- inhibition at 10 µM (MALME-3M): < 10%

Structure (SMILES): COc1cccc(NC(=O)Nc2ccc(-c3ccc(OC)c(OC)c3)nc2C)c1 [Compound 8m, 1-(6-(3,4-Dimethoxyphenyl)-2-methylpyridin-3-yl)-3-(3-methoxyphenyl) Urea]
- Growth Percent (HL-60(TB)): 73.33%
- inhibition at 10 µM (HL-60(TB)): 27%
- Growth Percent (SR): 82.12%
- inhibition at 10 µM (SR): 18%
- inhibition at 10 µM (K-562): 22%
- Growth Percent (K-562): 78.49%
- inhibition at 10 µM (RPMI-8226): 26%
- Growth Percent (RPMI-8226): 74.18%
- Growth Percent (CCRF-CEM): 89.11%
- inhibition at 10 µM (CCRF-CEM): 11%
- inhibition at 10 µM (MOLT-4): 35%
- Growth Percent (MOLT-4): 65.34%
- Growth Percent (NCI-H322M): 95.22%
- inhibition at 10 µM (NCI-H322M): < 10%
- inhibition at 10 µM (NCI-H522): 47%
- Growth Percent (NCI-H522): 53.07%
- inhibition at 10 µM (NCI-H460): < 10%
- Growth Percent (NCI-H460): 102.12%
- Growth Percent (HOP-62): 94.75%
- inhibition at 10 µM (HOP-62): < 10%
- inhibition at 10 µM (NCI-H226): < 10%
- Growth Percent (NCI-H226): 94.44%
- Growth Percent (EKVX): 100.68%
- inhibition at 10 µM (EKVX): < 10%
- Growth Percent (HOP-92): 81.00%
- inhibition at 10 µM (HOP-92): 19%
- inhibition at 10 µM (NCI-H23): 10%
- Growth Percent (NCI-H23): 90.97%
- Growth Percent (A549/ATCC): 90.54%
- inhibition at 10 µM (A549/ATCC): 10%
- IC50 [1, 2]: 23 ± 1.91 µM
- IC50 [1, 3]: 13.1 ± 1.12 µM
- inhibition at 10 µM (UACC-62): < 10%
- Growth Percent (UACC-62): 93.89%
- inhibition at 10 µM (SK-MEL-28): < 10%
- Growth Percent (SK-MEL-28): 99.69%
- inhibition at 10 µM (MDA-MB-435): < 10%
- Growth Percent (MDA-MB-435): 100.45%
- inhibition at 10 µM (SK-MEL-2): 13%
- Growth Percent (SK-MEL-2): 87.95%
- Growth Percent (LOX IMVI): 92.56%
- inhibition at 10 µM (LOX IMVI): < 10%
- inhibition at 10 µM (SK-MEL-5): 16%
- Growth Percent (SK-MEL-5): 84.32%
- inhibition at 10 µM (M14): 10%
- Growth Percent (M14): 90.93%
- Growth Percent (MALME-3M): 92.61%
- inhibition at 10 µM (MALME-3M): < 10%
